Results on 1 compound are retold here after US20050101542A1, “Combination therapy for controlling appetites” (Regents of the University of California, priority 2002, published 2005).

The structures appear in SMILES notation.

A short description of data set [1]: Capsaicin sensory deafferentation and feeding, Example 8. The data set is classed as in vivo, rat. The settings on record: CCK-8 10 μg/kg, CP 93129 1, WIN 55,212-2 2, anandamide 2, SR141716A 3 mg/kg, i.p. As to the method:
Capsaicin was administered subcutaneously (12.5 mg/ml, Kaneko, et al., Am. J. Physiol., 275:G1056-G1062 (1998)) in rats anesthetized with ethyl ether. The total dose of capsaicin (125 mg/kg) was divided into three injections (25 mg/kg in the morning and 50 mg/kg in the afternoon of the first day, 50 mg/kg on the 2nd day). Control rats received vehicle injections. […] Water intake (in ml/4 hr) was: vehicle 13.6±1.4; capsaicin rats 24.0±1.9, P<0.01 (n=12).
The can was retired and intake was recorded.

The conditions of data set [2]: rat, in vivo.
Method: (§1) Drugs were administered by i.p. injection 15 min prior to food presentation in a volume of 1 ml/kg. For i.c.v. administration the obturator was removed from the guide cannula and an 8-mm injector (30-gauge stainless steel tubing) that was connected to 70 cm of calibrated polyethylene-10 tubing was lowered into the ventricle. The tubing was then raised until flow began and 5 μl of drug solution were infused over a 30-60 s period. The injector was left in the guide cannula for additional 30 s and then removed. The stylet was immediately replaced. Animals were tested 5 min after injections. The i.c.v. cannula placements were evaluated after each experiment by dye injection. Only those rats with proper i.c.v. placements were included in the data analysis.
(§2) The animals were then food-deprived for 24 h, with free access to water. 15 min after drug administration, the animals were returned to their home cage, where a can with a measured amount of food (usually 30-40 g) a bottle containing 250 ml of fresh water were placed. Food pellets and food spillage were weighed at 60,120 and 240 min after starting the test, and the amount of food eaten was recorded. At the end of the test, the amount of water consumed was also measured. For partial satiation of animals, 24 h food-deprived rats were allowed to eat from the can during 1 h. The can was retired and intake was recorded. 15 min after drug injections, the food was again presented, and the amount consumed was recorded hourly for the following 4 h.
For another data set, the target named is T1, human PPARα (Homo sapiens, UniProt Q07869).
T1 construct: expressed in transfected cells; host or cells: HeLa (clonal reporter line HLR, stably transfected with pFA-PPARα)
T1 sequence (Q07869 239-466 limits assumed): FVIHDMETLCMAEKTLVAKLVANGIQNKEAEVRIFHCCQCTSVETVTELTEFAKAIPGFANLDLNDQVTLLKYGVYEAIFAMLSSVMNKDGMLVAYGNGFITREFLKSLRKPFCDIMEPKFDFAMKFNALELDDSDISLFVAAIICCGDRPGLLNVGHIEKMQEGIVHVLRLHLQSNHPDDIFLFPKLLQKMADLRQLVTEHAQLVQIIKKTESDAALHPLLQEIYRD
Briefly: GAL4 chimeric receptor transactivation assay in HeLa cells, PPARα. The data set is classed as cell-based. The settings on record: HeLa transactivation assay. As to the method:
Eighteen hours following transfection, the culture media was replaced with supplemented DMEM containing hygromycin (100 μg-ml^−1, Calbiochem). After 4 weeks in culture, the surviving clones were isolated and analyzed by luciferase assay. […] The cells were cultured in supplemented DMEM containing hygromycin and G418. For transactivation assays, cells were seeded in 6-well plates (50,000 cells per well) and incubated for 7 hours in supplemented DMEM containing hygromycin and G418, plus appropriate concentrations of test compounds. Dual-luciferase reporter assay system (Promega) and an MLX Microtiter® plate luminometer (Dynex) were used to determine luciferase activity in cell lysates.

The nature of data set [3]: Acute food intake in 24-h food-deprived rats, i.p. dosing. The data set is classed as in vivo, rat. The settings on record: 24-h food-deprived rats, i.p. As to the method:
Feeding experiments. Acute experiments. Food intake was measured in 24-h food-deprived rats (Navarro, et al., J. Neurochem., 67:1982-1991 (1996)), administering drugs 15 min before food presentation. Subchronic experiments. Ad libitum fed rats received vehicle injections for three days. On day four, the animals were divided in two equal groups and gave them daily injections of vehicle or OEA (5 mg per kg at 1900 h) for 7 consecutive days, while measuring body weight, food intake and water intake.
The effects of systemically administered OEA or an OEA-like compound or OEA-like modulator on food intake in rats can be assessed using a 24 h fast. […] To define the selectivity of this response, various OEA analogs were evaluated for their ability to produce hypophagia.

The nature of data set [4]: Food intake studies in food-deprived or partially satiated rats (i.p. or i.c.v.), Example 8. The settings on record: for food intake in partially satiated rats, systemic (i.p.) administration: 24 h food-deprived, allowed to eat 60 min before drug.
Method: as §1, §2
In a further data set the test system is Soleus muscle. Put plainly: [14C]oleate oxidation to CO2 in soleus muscle. Format: cell-based, rat. The source says:
This example illustrates the effect of OEA on fat metabolism and methods for studying the same. Oleoylethanolamide (OEA) decreases body weight not only by suppressing appetite, but also by possibly enhancing body fat catabolism. The effects of OEA on fatty acid oxidation in major body-fat burning tissues (soleus muscle, liver, cultured cardiac myocytes and astrocytes) was examined. […] In addition, OEA induces a significant mobilization of triacylglycerol stores from primary white adipose tissue cells. Table 4 details the methods and effects of OEA on fatty acid oxidation in these cells. Structure-activity relationship experiments provide evidence that the effect of OEA on skeletal muscle fatty acid oxidation is specific (FIG. 8).

As to `CCCCC/C=C\C/C=C\C/C=C\C/C=C\CCCC(=O)NCCO` [anandamide, arachidonylethanolamide], the “effect of capsaicin treatment on the drug's feeding response” value in data set [1] is on record as “loss of the hyperphagic effects”. In addition, the “motor effect at the highest central dose” value in data set [2] is reported as “motor impairment”. Further, the PPARα activation entry on human PPARα is “ineffective”. Moreover, the “food intake (hypophagia)” value in data set [3] was “no effect”. For the same compound, in data set [4], the “food intake in partially satiated rats, systemic (i.p.) administration” value is “significant and prolonged hyperphagia”; the “food intake after central (i.c.v.) administration” value is reported as “no effect on feeding”. Besides, in data set [4] (listed as Anandamide), the “food intake in partially satiated rats, systemic (i.p.) administration” value was “elicited hyperphagia” and the “food intake after central (i.c.v.) administration” value was “no effect”. Also, the “food intake in 24 h food-deprived rats, systemic (i.p.) administration” value in data set [4] (anandamide or WIN 55,212-2 0.1-2 mg/kg) was “no effect”. Moreover, in the data set on Soleus muscle, the “mimicry of the OEA effect on skeletal muscle fatty acid oxidation” value is “not”.
